Data reported in ChEMBL document CHEMBL1132887, “Syntheses and biological evaluation of novel 2alpha-substituted 1alpha,25-dihydroxyvitamin D3 analogues” (2000).

Experiments:
Design in all cases: reference not given here
[1] = target: T1, Vitamin D-binding protein (Rattus norvegicus) (UniProt P04276); experiment: Compound was tested for binding affinity against rat serum DBP (vitamin D binding protein); type: cell-free
T1 sequence (whole entry): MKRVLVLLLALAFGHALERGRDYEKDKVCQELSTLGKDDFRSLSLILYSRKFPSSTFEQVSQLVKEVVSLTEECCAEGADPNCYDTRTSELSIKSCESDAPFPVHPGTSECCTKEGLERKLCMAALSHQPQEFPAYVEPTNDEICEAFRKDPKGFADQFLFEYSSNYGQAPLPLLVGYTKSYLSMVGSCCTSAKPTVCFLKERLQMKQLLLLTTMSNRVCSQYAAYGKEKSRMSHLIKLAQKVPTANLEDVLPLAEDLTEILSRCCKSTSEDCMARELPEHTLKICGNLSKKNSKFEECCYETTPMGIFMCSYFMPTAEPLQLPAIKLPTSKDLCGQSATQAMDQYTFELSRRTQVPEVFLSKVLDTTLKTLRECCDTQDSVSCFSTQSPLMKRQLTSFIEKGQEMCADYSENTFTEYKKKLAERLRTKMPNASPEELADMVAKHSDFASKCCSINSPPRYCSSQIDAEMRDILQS

[2] = target: T2, Vitamin D3 receptor (Bos taurus) (UniProt Q28037); experiment: Binding affinity for bovine thymus vitamin D receptor (VDR)
T2 sequence (whole entry): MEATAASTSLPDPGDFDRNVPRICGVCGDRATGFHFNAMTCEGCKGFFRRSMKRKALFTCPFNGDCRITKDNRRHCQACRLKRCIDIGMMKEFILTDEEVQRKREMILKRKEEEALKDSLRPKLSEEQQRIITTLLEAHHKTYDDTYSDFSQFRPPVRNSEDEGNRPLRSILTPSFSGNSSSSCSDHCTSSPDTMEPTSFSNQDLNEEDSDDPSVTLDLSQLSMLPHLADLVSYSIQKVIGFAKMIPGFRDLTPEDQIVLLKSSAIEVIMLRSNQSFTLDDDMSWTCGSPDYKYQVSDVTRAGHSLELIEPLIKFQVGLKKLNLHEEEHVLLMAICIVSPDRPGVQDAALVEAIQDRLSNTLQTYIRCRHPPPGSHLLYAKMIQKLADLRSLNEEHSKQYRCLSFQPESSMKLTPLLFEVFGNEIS

Rattus norvegicus = organism: Rattus norvegicus; experiment: Compound was evaluated for calcium mobilizing activity in rat serum; type: functional
HL-60 = experiment: Compound was evaluated for HL-60 cell differentiation which was assessed in terms of expression of antigen CD11b; type: functional, Homo sapiens

`C=C1/C(=C\C=C2/CCC[C@]3(C)[C@@H]([C@H](C)CCCC(C)(C)O)CC[C@@H]23)C[C@@H](O)C[C@@H]1O` [CALCITRIOL] gave an Activity [1] of 100, an Activity [2] of 100 and an Activity (Rattus norvegicus) of 100. For the same compound, the Activity (HL-60) was 100.

`C=C1/C(=C\C=C2/CCC[C@]3(C)[C@@H]([C@H](C)CCCC(C)(C)O)CC[C@@H]23)C[C@@H](O)[C@H](C)[C@@H]1O` was tested, and the Activity [1] was 44, the Activity [2] was 400 and the Activity (Rattus norvegicus) was 658. It also gave an Activity (HL-60) of 444.

`C=C1/C(=C\C=C2/CCC[C@]3(C)[C@@H]([C@H](C)CCCC(C)(C)O)CC[C@@H]23)C[C@@H](O)[C@H](CC)[C@@H]1O` showed an Activity [1] of 48, an Activity [2] of 40 and an Activity (Rattus norvegicus) of 68. For the same compound, the Activity (HL-60) was 106.

`C=C1/C(=C\C=C2/CCC[C@]3(C)[C@@H]([C@H](C)CCCC(C)(C)O)CC[C@@H]23)C[C@@H](O)[C@H](CCO)[C@@H]1O` showed an Activity [1] of 74, an Activity [2] of 70 and an Activity (Rattus norvegicus) of 372. The Activity (HL-60) was 86.

For `C=C1/C(=C\C=C2/CCC[C@]3(C)[C@@H]([C@H](C)CCCC(C)(C)O)CC[C@@H]23)C[C@@H](O)[C@H](CCC)[C@@H]1O`, the Activity [1] was 21, the Activity [2] was 20 and the Activity (Rattus norvegicus) was 636. For the same compound, the Activity (HL-60) was 44.

Work on `C=C1/C(=C\C=C2/CCC[C@]3(C)[C@@H]([C@H](C)CCCC(C)(C)O)CC[C@@H]23)C[C@@H](O)[C@H](CO)[C@@H]1O` yielded an Activity [1] of 95, an Activity [2] of 20 and an Activity (Rattus norvegicus) of 124. The Activity (HL-60) was 10.

`C=C1/C(=C\C=C2/CCC[C@]3(C)[C@@H]([C@H](C)CCCC(C)(C)O)CC[C@@H]23)C[C@@H](O)[C@H](CCCO)[C@@H]1O` was tested, and the Activity [1] was 362, the Activity [2] was 300 and the Activity (Rattus norvegicus) was 50866. It also gave an Activity (HL-60) of 240.
